Reference: patent US7495018B2, “Substituted 1,3-thiazole compounds, their production and use” (Takeda Pharmaceutical Company Limited, priority 2000, dated 2009)

Row | SMILES | melting point
1 | CCc1nc(-c2cccc(C(C)C)c2)c(-c2ccnc(N)c2)s1 [Example Compound 20-10, 4-[2-ethyl-4-[3-(1-methylethyl)phenyl]-1,3-thiazol-5-yl]-2-pyridylamine] | 80 to 81 °C
2 | CSc1ccc(-c2nc(-c3cccc(C)c3)c(-c3cc(C)nc(C)c3)s2)cc1 [Example Compound 16-3, 5-(2,6-dimethyl-4-pyridyl)-4-(3-methylphenyl)-2-[4-(methylthio)phenyl]-1,3-thiazole] | 112 to 114 °C
3 | CSc1ccc(-c2nc(-c3cccc(C)c3)c(-c3ccnc(N)c3)s2)cc1 [Example Compound 23-2, 4-[4-(3-methylphenyl)-2-[4-(methylthio)phenyl]-1,3-thiazol-5-yl]-2-pyridylamine] | 181 to 183 °C
4 | CCC(=O)Nc1cc(-c2sc(-c3ccc(SC)cc3)nc2-c2cccc(C)c2)ccn1 [Example 84-9, N-[4-[4-(3-methylphenyl)-2-[4-(methylthio)phenyl]-1,3-thiazol-5-yl]-2-pyridyl]propionamide] | 171 to 172 °C
5 | CSc1ccc(-c2nc(-c3ccc(F)cc3)c(-c3ccnc(C)c3)s2)cc1 [Example Compound 16-5, 4-(4-fluorophenyl)-5-(2-methyl-4-pyridyl)-2-[4-(methylthio)phenyl]-1,3-thiazole] | 99 to 100 °C
6 | Cc1cc(C)cc(-c2nc(N)sc2-c2ccnc(C)c2)c1 [Example Compound 7-5, [4-(3,5-dimethylphenyl)-5-(2-methyl-4-pyridyl)-1,3-thiazol-2-yl]amine] | 219 to 220 °C
7 | CSc1ccc(-c2nc(-c3cccc(C)c3)c(-c3ccnc(F)c3)s2)cc1 [Example Compound 15, 5-(2-fluoro-4-pyridyl)-4-(3-methylphenyl)-2-[4-(methylthio)phenyl]-1,3-thiazole] | 97 to 100 °C
8 | CC(F)(F)c1nc(-c2cccc(Cl)c2)c(-c2ccnc(N)c2)s1 | 131 to 132 °C
9 | Cc1cccc(-c2nc(C(=O)O)sc2-c2ccnc(N)c2)c1 [Example Compound 25-1, 5-(2-amino-4-pyridyl)-4-(3-methylphenyl)-1,3-thiazole-2-carboxylic acid] | 156 to 157 °C
10 | Cc1cccc(-c2nc(-c3ccc(Cl)cc3)sc2-c2ccnc(C)c2)c1 [Example Compound 14-2, 2-(4-chlorophenyl)-4-(3-methylphenyl)-5-(2-methyl-4-pyridyl)-1,3-thiazole] | 104 to 105 °C
11 | CCCCC(=O)Nc1cc(-c2sc(CC)nc2-c2cccc(C)c2)ccn1 [Example 87-1, N-[4-[2-ethyl-4-(3-methylphenyl)-1,3-thiazol-5-yl]-2-pyridyl]valeramide] | 81 to 82 °C
12 | CNc1nc(-c2cccc(C)c2)c(-c2ccnc(F)c2)s1 [Example Compound 8, N-methyl-[5-(2-fluoro-4-pyridyl)-4-(3-methylphenyl)-1,3-thiazol-2-yl]amine] | 186 to 187 °C
13 | COc1ccc(-c2nc(C)sc2-c2ccnc(N)c2)cc1 [Example Compound 23-3, 4-[4-(4-methoxyphenyl)-2-methyl-1,3-thiazol-5-yl]-2-pyridylamine] | 140 to 141 °C
14 | CSc1ccc(-c2nc(-c3cc(C)cc(C)c3)c(-c3ccnc(C)c3)s2)cc1 [Example Compound 16-2, 4-(3,5-dimethylphenyl)-5-(2-methyl-4-pyridyl)-2-[4-(methylthio)phenyl]-1,3-thiazole] | 123 to 125 °C
15 | CCc1nc(-c2cccc(C(F)(F)F)c2)c(-c2ccnc(NC(C)=O)c2)s1 [Example 82-3, N-[4-[2-ethyl-4-(3-trifluoromethylphenyl)-1,3-thiazol-5-yl]-2-pyridyl]acetamide] | 146 to 147 °C
16 | CCOC(=O)c1nc(-c2cccc(C)c2)c(-c2ccnc(C)c2)s1 [Example Compound 14-12, Ethyl [4-(3-methylphenyl)-5-(2-methyl-4-pyridyl)-1,3-thiazol-2-yl]carboxylate] | 97 to 98 °C
17 | CCC(=O)Nc1cc(-c2sc(CC)nc2-c2ccccc2)ccn1 [Example 84-1, N-[4-(2-ethyl-4-phenyl-1,3-thiazol-5-yl)-2-pyridyl]propionamide] | 139 to 140 °C
18 | CCc1cccc(-c2nc(CC)sc2-c2ccnc(N)c2)c1 [Example Compound 20-8, 4-[2-ethyl-4-(3-ethylphenyl)-1,3-thiazol-5-yl]2-pyridylamine] | 128 to 129 °C

Results, then the compound that gave them:

Row | melting point | SMILES
19 | 252 to 253 °C | Cc1cc(C)cc(-c2nc(NC(=O)c3ccc(C)nc3)sc2-c2ccnc(C)c2)c1 [Example Compound 46-3, N-[4-(3,5-dimethylphenyl)-5-(2-methyl-4-pyridyl)-1,3-thiazol-2-yl]-6-methylnicotinamide]
20 | 261 to 262 °C | Cc1cc(-c2sc(NC(=O)c3cccnc3)nc2-c2ccc(F)cc2)ccn1 [Example Compound 42-7, N-[4-(4-fluorophenyl)-5-(2-methyl-4-pyridyl)-1,3-thiazol-2-yl]nicotinamide]
21 | 197 to 198 °C | Cc1cccc(-c2nc(-c3ccc(S(C)(=O)=O)cc3)sc2-c2cc[n+]([O-])c(C)c2)c1 [Example Compound 68-1, 4-[4-(3-methylphenyl)-2-(4-methylsulfonylphenyl)-1,3-thiazol-5-yl]-2-methylpyridine N-oxide]
22 | 213 to 214 °C | Cc1cccc(-c2nc(NC(=O)c3ccc(C)nc3)sc2-c2ccnc(NC3CCCC3)c2)c1 [Example Compound 46-2, N-[5-(2-cyclopentylamino-4-pyridyl)-4-(3-methylphenyl)-1,3-thiazol-2-yl]-6-methylnicotinamide]
23 | 224 to 225 °C | CCC(=O)Nc1cc(-c2sc(-c3ccc(S(C)(=O)=O)cc3)nc2-c2cccc(Cl)c2)ccn1 [Example Compound 58-7, N-[4-[4-(3-chlorophenyl)-2-(4-methylsulfonylphenyl)-1,3-thiazol-5-yl]-2-pyridyl]propionamide]
24 | 136 to 138 °C | O=C(Nc1nc(-c2ccc(F)cc2)c(-c2ccnc(NC3CCCCC3)c2)s1)c1cccnc1 [Example Compound 42-5, N-[5-(2-cyclohexylamino-4-pyridyl)-4-(4-fluorophenyl)-1,3-thiazol-2-yl]nicotinamide]
25 | 169 to 170 °C | Cc1cccc(-c2nc(N)sc2-c2ccnc(NC3CCCC3)c2)c1 [Example Compound 34-3, [5-(2-cyclopentylamino-4-pyridyl)-4-(3-methylphenyl)-1,3-thiazol-2-yl]amine]
26 | 185 to 187 °C | CC(=O)Nc1nc(-c2cccc(C)c2)c(-c2cc(C)nc(C)c2)s1 [Example Compound 40-2, N-[5-(2,6-dimethyl-4-pyridyl)-4-(3-methylphenyl)-1,3-thiazol-2-yl]acetamide]
27 | 219 to 222 °C | COc1ccc(-c2nc(NC(=O)c3ccccc3)sc2-c2ccnc(N)c2)cc1 [Example Compound 51, N-[5-(2-amino-4-pyridyl)-4-(4-methoxyphenyl)-1,3-thiazol-2-yl]benzamide]
28 | 175 to 178 °C | Cc1cccc(-c2nc(NC(=O)c3cccnc3)sc2-c2ccnc(C)c2)c1 [Example Compound 41, N-[4-(3-methylphenyl)-5-(2-methyl-4-pyridyl)-1,3-thiazol-2-yl]nicotinamide]
29 | 144 to 145 °C | CCCc1nc(-c2cccc(Cl)c2)c(-c2ccnc(NC(C)=O)c2)s1 [Example Compound 30-3, N-[4-[4-(3-chlorophenyl)-2-propyl-1,3-thiazol-5-yl]-2-pyridyl]acetamide]
